Measured values from patent US6348488B1, “Remedies for motor dysfunction and GAPDH expression inhibitors” (Ono Pharmaceutical Co., Ltd., priority 1998, dated 2002).

Columns and labels:
[1] = tested on: 30 types or more of surface receptors inclusive of overactivated NMDA receptors; test: Influence on surface receptors in age-induced apoptosis of CGC
GAPDH mRNA = GAPDH mRNA expression in CGC, Northern blotting analysis; type: cell-based, rat; conditions: addition at 7 DIV; measured at 15 DIV (CGC)
Description: Preparation of the primary culture cerebellar granule cells (CGC) was performed in accordance with Test Example 3 A).
Then, according to the method of Fukamauchi et al., total RNA was extracted from CGC of the desired culture day number. The total RNA (9 μg/lane) was electrophoresed on 1.2% agarose formaldehyde gel and transferred to a nylon membrane (Hybond-N, Amersham). Thereafter, it was subjected to prehybridization at 42° C. for 3 to 5 hours in a solution containing 5×Denhardt's solution (0.1% Ficol 400, 0.1% polyvinyl pyrrolidone, 0.1% BSA), 50% formamide, 50 μg/ml salmon testis DNA, and 0.5% SDS (Fukamauchi et al., J. Neurochem., 56:716-9, 1991, Sunaga et al., Neurosci. Lett., 163:27-30, 1993).
Using a Multi prime DNA labelling kit (Amersham), human GAPDH cDNA probe (Clontech, Palo Alto, Calif., U.S.A.) labeled with [α-^32P] deoxycytidine 5′-triphosphate (3,000 Ci/mm pl) was thermally denatured and thereafter added to the prehybridization solution, followed by hybridization at 42° C. for 24 hours.
The membrane was fully washed at 60° C. for 10 minutes in 0.1% SDS containing 0.1×SSC ([…], pH 7.0), exposed on a high-sensitivity X-ray film (IPSO 3000, Fuji) to prepare an autoradiogram. Quantitative analysis was performed using a CCD type image analyzer (BIOPROFIL, M&S).

[2] = tested on: cerebellar granule cells (CGC); test: cells; type: cell-based; conditions: for Age-induced apoptosis of CGC: added at 7 DIV, agent 0.03 μM, THA 10 μM
Description: A) Preparation of primary culture cerebellar granule cells (CGC)
According to the method by Ishitani et al., CGC was prepared as follows (Ishitani et al., J. Neurochem., 66:928-35, 1996).
Cerebellum was excised from an 8-day old Sprague-Dawley rat and cut to 0.4 mm square cubes using Mcllawin tissue chopper. Further, the cubes were digested at 37° C. for 15 minutes in a 0.025% trypsin-containing Krebs phosphate buffer (KPB).
After the reaction was stopped with KPB containing 0.008% soybean trypsin inhibitor and 0.0016% deoxyribonuclease I, the digested cubes were triturated in KPB containing 0.01% deoxyribonuclease I and 0.05% soybean trypsin inhibitor using a convergent Pasteur pipette to obtain dispersed CGC.
The cells were suspended in a basal modified Eagle's medium (BME) containing 10% fetal calf serum (FCS), 2 mM glutamine, 50 μg/ml gentamycin and 25 mM potassium chloride (KCl), and seeded on a plastic dish (35 mm) coated with poly-L-lysine (molecular weight: 3-7×10^4, 100 μg/ml) to a cell density of 2.1×10^5 live cells/cm^2.
Under 5% carbon dioxide (CO2), culture was started at 37° C. and after 18 to 24 hours cytosine arabinofuranoside (10 μM) for preventing the growth of non-neuronal cells was added and culture was continued. At 7 DIV (days in vitro), various chemicals were added and thereafter, culture was continued in the same medium.
B) Measurement of viability by live double staining method with FDA-PI
CGC after desired culture days was washed twice with 2 ml of Locke's solution (154 mM NaCl, 5.6 mM KCl, 2.3 mM CaCl2, 1.2 mM MgSO4, 5 mM HEPES, 5.6 mM glucose, 3.6 mM NaHCO3, pH 7.4) and then stained with 0.0008% fluorescein diacetate (FDA) and 0.0002% propidium iodide (PI) for 3 to 5 minutes.
Fluorescent observation was performed using epi-illuminated fluorescent microscope (Olympus, IMT2-RFL) equipped with a dichroic mirror for B excitement (IMT2-DMB), an auxiliary excitation filter (EY455) and an auxiliary filter (O530).
FDA was decomposed by an esterase in the living cells to emit fluorescence (fluorescein) from green to yellow fluorescence, on the other hand PI permeates through dead cell membranes and binds with DNA to emit from red to brown fluorescence, so that the both fluorescences can be observed simultaneously using the above-described fluorescence microscopy.
Viability was calculated according to the following formula.
Viability=[FDA stained cell number/(FDA stained cell number+PI stained cell number)]×100

spinal cord impact model = test: Motor dysfunction inhibitory action in spinal cord impact model (treadmill maximum walking distance); type: in vivo, rat
Description: A male Wistar rat (about 250 g) was placed in a supine position under anesthesia with sodium pentobarbital (40 mg/kg, i.p.). After partial laminectomy to remove the fifth lumber spine, a silicon rubber (height: 1 mm, length: 4 mm, and width: 1.25 mm) was inserted in the fourth and sixth lumber spines.
After the operation, the maximum walking distance was measured using a treadmill on Day 1, 2, 3, 5, 7 and 14.
That is, the treadmill was run at a speed starting from 10 m/min, with an increment at a rate of 5 m/min every 3 minutes thereafter until the time when the animal dropped from the walking belt and could not walk any further. The walking distance was calculated from the time when the animal could not walk any further.

GAPDH protein = GAPDH protein expression in CGC, SDS-PAGE and Western blotting analyses; type: cell-based, rat; conditions: process of age-induced cell death
Description: The cultured cells of the desired culture day number were washed three times with 2 ml of PBS and then stripped off by a rubber policeman and the cells were recovered by centrifugation at 188×G at 4° C. for 5 minutes. The cells were resuspended in ice-cooled 50 mM Tris-HCl buffer (pH 7.4) and the cell membranes were destroyed by sonication.
The homogenate was centrifuged at 2×10^5×G at 4° C. for 30 minutes to obtain a precipitate (insoluble fraction (pellet)), which was resuspended in the same buffer and then was subjected to quantitative determination of protein together with the supernatant (soluble “supernatant”). […]
The gel after the electrophoresis was stained with 0.1% Coomassie blue. The quantitative analysis of the amount of 38-kDa protein band was performed using a CCD type image analyzer (BIOPROFIL, N&S). […]
The PDVF membrane after the transcription was treated in 0.5% skim milk containing TBS-T (20 mM Tris, 137 mM NaCl, 0.05% Tween 20, pH 7.4) for 60 minutes to effect blocking, and then was allowed to react at room temperature for 60 minutes in TBS-T containing primary antibody (anti-rabbit GAPDH monoclonal antibody diluted to 1:15000). […] After washing the PVDF membrane, quantitative determination of GAPDH protein was performed on a high-sensitivity X-ray film using a detector for chemiluminescence (Renaissance TM, NEN).

[3] = Acute toxicity, rat, intravenous administration; type: in vivo
[4] = tested on: spinal cord injury crush lesion model; test: Motor dysfunction in spinal cord injury (crush lesion model, modified Tarlov scale); type: in vivo, rat; conditions: 10 mg/kg, versus vehicle control group
Description: A male Wistar rat (about 250 to 300 g) was subject to dorsal median incision and laminectomy to remove thoracic spine (T11) under anesthesia with sodium pentobarbital and then the dura mater was exposed. A metal pole (diameter: 3 mm, length: 40 mm, weight: 3.8 g) was placed on the dura mater and a load of 10 g was dropped from a height of 10 cm through a cylinder to prepare a crush lesion model. Thereafter, the muscle layer and skin were sutured. The behavioral deficit was evaluated using modifications of Tarlov scale. That is, the evaluation was made based on mean scores of both hind legs according to the following scores. Neurologic scores: 0 Complete paralysis of hind legs 1 Slight movements of hind legs were observed. 2 Movements of hind legs were clear but the body weight could not be supported so that autonomic movement was impossible. 3 The animal crept and could not support the body weight. 4 The animal could support the body weight when standing or walking. However, clearly disabled. 5 Posture and walking ability are close to those of normal animals.

SMILES: O=C[C@@H]1CCCN1C(=O)CCC(=O)NCc1ccc(Cl)cc1 [Agent of invention, N-[3-[N-(4-chlorophenylmethyl)carbamoyl]propanoyl]-L-prolinal]
- Influence on surface receptors [1]: no influence
- Increase in GAPDH mRNA (GAPDH mRNA): completely inhibited
- viability at 0.03 µM ([2]; Rattus norvegicus, 0.03 μM added at 7 DIV, at 17 DIV): 92 ± 4.4%
- Age-induced apoptosis of CGC [2]: inhibited
- Concentration exhibiting a protective action to neurons ([2]; at 17 DIV): several
- Maximum Walking Distance (spinal cord impact model; 1 mg/Kg, Day 2 after administration): 237 ± 49 m
- Maximum Walking Distance (spinal cord impact model; 1 mg/Kg, Day 4 after administration): 414 ± 58 m
- Maximum Walking Distance (spinal cord impact model; 1 mg/Kg, Day 11 after administration): 347 ± 77 m
- Maximum Walking Distance (spinal cord impact model; 10 mg/Kg orally, Day 2 after administration): 329 ± 15 m
- Maximum Walking Distance (spinal cord impact model; 10 mg/Kg orally, Day 4 after administration): 455 ± 34 m
- Maximum Walking Distance (spinal cord impact model; 10 mg/Kg orally, Day 11 after administration (day 14 after operation)): 408 ± 30 m
- Maximum Walking Distance (spinal cord impact model; 10 mg/Kg orally, Day 11 after administration (day 14 after operation), listed as N-[3-[N-(4-chlorophenylmethyl)carbamoyl]propanoyl]-L-prolinal): 408±30 m
- Influence on the autonomic movement and sensitivity to pain (spinal cord impact model; rat, spinal cord impact model): no influence
- Increase in the 38-kDa protein (GAPDH) in cell membrane fraction (GAPDH protein): inhibited the increase
- Acute toxicity (LD50) [3]: 200 mg/kg body weight
- Degree of recovery of motor dysfunction (neurologic score) ([4]; day 9 up to day 21 of the operation): tended to be superior as compared with the vehicle control group
- Change in body weight after the operation [4]: tended to be superior to the vehicle control group

SMILES: Nc1c2c(nc3ccccc13)CCCC2 [THA, 9-amino-1,2,3,4-tetrahydroacridine, reference compound]
- Inhibition of the cell death ([2]; 1 μM): about 30%
- Inhibition of the cell death ([2]; 10 μM): almost completely
- Age-induced apoptosis of CGC [2]: inhibited
